# Values quoted from earlier work in patent US20180185454A1, “AGENT FOR PREVENTING ONSET OF IDIOPATHIC OSTEONECROSIS OF FEMORAL HEAD AND/OR SUPPRESSING PROGRESS OF SAME” (ASAHI KASEI PHARMA CORPORATION, priority 2015, published 2018).
# Where two headings read alike, the source gives them in different places.
# Columns and labels:
# ION = details: vs alendronate control; no statistical superiority between the two groups; dosage not disclosed
# [1] = tested on: osteonecrosis of the jawbone; details: induced by bisphosphonates and denosumab
structure (smiles),measurement,setting,value
CC[C@H](C)[C@H](NC(=O)[C@H](CCC(=O)O)NC(=O)[C@H](CO)NC(=O)[C@@H](NC(=O)[C@@H](N)CO)C(C)C)C(=O)N[C@@H](CCC(N)=O)C(=O)N[C@@H](CC(C)C)C(=O)N[C@@H](CCSC)C(=O)N[C@@H](Cc1cnc[nH]1)C(=O)N[C@@H](CC(N)=O)C(=O)N[C@@H](CC(C)C)C(=O)NCC(=O)N[C@@H](CCCCN)C(=O)N[C@@H](Cc1cnc[nH]1)C(=O)N[C@@H](CC(C)C)C(=O)N[C@@H](CC(N)=O)C(=O)N[C@@H](CO)C(=O)N[C@@H](CCSC)C(=O)N[C@@H](CCC(=O)O)C(=O)N[C@@H](CCCN=C(N)N)C(=O)N[C@H](C(=O)N[C@@H](CCC(=O)O)C(=O)N[C@@H](Cc1c[nH]c2ccccc12)C(=O)N[C@@H](CC(C)C)C(=O)N[C@@H](CCCN=C(N)N)C(=O)N[C@@H](CCCCN)C(=O)N[C@@H](CCCCN)C(=O)N[C@@H](CC(C)C)C(=O)N[C@@H](CCC(N)=O)C(=O)N[C@@H](CC(=O)O)C(=O)N[C@H](C(=O)N[C@@H](Cc1cnc[nH]1)C(=O)N[C@@H](CC(N)=O)C(=O)N[C@@H](Cc1ccccc1)C(=O)O)C(C)C)C(C)C [teriparatide],"femoral head collapse progress (difference in collapse values before and after administration, simple x-ray frontal views)",ION,tended to suppress femoral head collapse progress in comparison to alendronate
same,effect on bone formation markers,bone formation markers; 20 μg daily formulation,markedly increases
same,effect on bone formation markers,bone formation markers; 56.5 μg once-a-week formulation,only slightly
same,effect against osteonecrosis of the jawbone,[1],have an effect
